Experimental findings from US9156856B2, “Apoptosis-inducing agents for the treatment of cancer and immune and autoimmune diseases” (AbbVie Inc., priority 2009, dated 2015) are described below.

The assay deals with Bcl-2 (Homo sapiens (Human), UniProt P10415). In words: Time Resolved-Fluorescence Resonance Energy Transfer (TR-FRET) Bcl-2 binding assay with F-Bak peptide probe. Conditions: GST-Bcl-2 1 nM, F-Bak peptide probe 100 nM, Tb-anti-GST antibody 1 nM; Ki by Wang's equation. How it is done:
Determination of the utility of compounds having Formula (I) as binders to and inhibitors of anti-apoptotic Bcl-2 proteins was performed using the Time Resolved-Fluorescence Resonance Energy Transfer (TR-FRET) Assay. Tb-anti-GST antibody was purchased from Invitrogen (Catalog No. PV4216).
Representative compounds were serially diluted in dimethyl sulfoxide (DMSO) starting at 50 μM (2× starting concentration; 10% DMSO) and 10 μL were transferred into a 384-well plate. The samples are then mixed on a shaker for 1 minute and incubated for an additional 3 hours at room temperature. For each assay, the probe/antibody and protein/probe/antibody were included on each assay plate as negative and positive controls, respectively. Fluorescence was measured on the ENVISION plate reader (Perkin Elmer) using a 340/35 nm excitation filter and 520/525 (F-Bak peptide) and 495/510 nm (Tb-labeled […] antibody) emission filters Inhibition constants (Ki) are shown in TABLE 2 below and were determined using Wang's equation (Wang Z.-X. An Exact Mathematical Expression For Describing Competitive Binding Of Two Different Ligands To A Protein Molecule. FEBS Lett. 1995, 360:111-4).
The inhibition constant (Ki) is the dissociation constant of an enzyme-inhibitor complex or a protein/small molecule complex, wherein the small molecule is inhibiting binding of one protein to another protein. So a large K, value indicates a low binding affinity and a small Ki value indicates a high binding affinity.
The compounds are therefore expected to have utility in treatment of diseases during which anti-apoptotic Bcl-2 protein is expressed.

Sequence of Bcl-2 (P10415 whole entry): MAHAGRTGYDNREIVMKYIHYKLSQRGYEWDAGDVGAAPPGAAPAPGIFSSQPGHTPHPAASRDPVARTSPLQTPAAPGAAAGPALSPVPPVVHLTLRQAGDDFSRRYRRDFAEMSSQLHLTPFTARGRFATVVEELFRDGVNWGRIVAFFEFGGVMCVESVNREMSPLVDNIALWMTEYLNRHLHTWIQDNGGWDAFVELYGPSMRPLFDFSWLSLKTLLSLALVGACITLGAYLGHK

As to `O=C(NS(=O)(=O)c1ccc(/C=C/c2ncon2)s1)c1ccc(N2CCN(Cc3ccccc3-c3ccc(Cl)cc3)CC2)cc1` [Example 26, 4-{4-[(4′-chloro-1,1′-biphenyl-2-yl)methyl]piperazin-1-yl}-N-({5-[(E)-2-(1,2,4-oxadiazol-3-yl)vinyl]thien-2-yl}sulfonyl)benzamide], the Ki was found to be 393 nM.

What is called Ki is a dissociation constant, usually derived from enzyme kinetics or from competition with a known ligand. High values mean lower affinity, low ones higher affinity.
